# Key:
# Assay type in all cases: in vivo
# [1] = tested on: pigweed (Amaranthus retroflexus); assay: Test A postemergence, pigweed; settings: Postemergence
# Summary of the method: (§1)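 Formulated with a surfactant in a non-phytotoxic solvent, compounds are applied to loam–sand pots, either to bare soil immediately after seeding (preemergence) or to seedlings of 2 to 10 cm bearing one to two leaves (postemergence).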
# [2] = tested on: Ryegrass, Italian (Italian ryegrass, Lolium multiflorum); assay: Test A postemergence, Ryegrass, Italian; settings: Postemergence
# Summary of the method: as §1
# [3] = tested on: corn (Zea mays); assay: Test A postemergence, corn; settings: Postemergence
# Summary of the method: as §1
# [4] = tested on: blackgrass (Alopecurus myosuroides); assay: Test A postemergence, blackgrass; settings: Postemergence
# Summary of the method: as §1
# [5] = tested on: barnyardgrass (Echinochloa crus-galli); assay: Test A postemergence, barnyardgrass; settings: Postemergence
# Summary of the method: (§2)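 Compounds in non-phytotoxic solvent with surfactant. Soil: loam/sand. Preemergence via directed soil spray after seeding; postemergence on seedlings 2–10 cm, one- to two-leaf.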
# [6] = tested on: barnyardgrass (Echinochloa crus-galli); assay: Test A preemergence, barnyardgrass; settings: Preemergence; for Plant response rating, Barnyardgrass: 31 g ai/ha, visual injury, 0 to 100 scale (0 no effect, 100 complete control), approx. 10 days; for Barnyardgrass plant response rating: 125 g ai/ha, visual injury on 0 to 100 scale (0 no effect, 100 complete control), approximately 10 days
# Summary of the method: as §1
# [7] = tested on: kochia (Bassia scoparia); assay: Test A postemergence, kochia; settings: Postemergence
# Summary of the method: as §1
# [8] = tested on: pigweed (Amaranthus retroflexus); assay: Test A preemergence, pigweed; settings: for Plant response rating, Pigweed: 31 g ai/ha, visual injury, 0 to 100 scale (0 no effect, 100 complete control), approx. 10 days; for Pigweed plant response rating: 125 g ai/ha, visual injury on 0 to 100 scale (0 no effect, 100 complete control), approximately 10 days
# Summary of the method: as §2
# [9] = tested on: ragweed (common ragweed, Ambrosia artemisiifolia); assay: Test A preemergence, ragweed; settings: Preemergence; for Plant response rating, Ragweed: 31 g ai/ha, visual injury, 0 to 100 scale (0 no effect, 100 complete control), approx. 10 days; for Ragweed plant response rating: 125 g ai/ha, visual injury on 0 to 100 scale (0 no effect, 100 complete control), approximately 10 days
# Summary of the method: as §1
# [10] = tested on: Foxtail, Giant (giant foxtail, Setaria faberi); assay: Test A postemergence, Foxtail, Giant; settings: Postemergence
# Summary of the method: as §1
# [11] = tested on: galium (catchweed bedstraw, Galium aparine); assay: Test A postemergence, galium; settings: Postemergence
# Summary of the method: as §2
# [12] = tested on: kochia (Bassia scoparia); assay: Test A preemergence, kochia; settings: Preemergence; for Plant response rating, Kochia: 31 g ai/ha, visual injury, 0 to 100 scale (0 no effect, 100 complete control), approx. 10 days; for Kochia plant response rating: 125 g ai/ha, visual injury on 0 to 100 scale (0 no effect, 100 complete control), approximately 10 days
# Summary of the method: as §1
# [13] = tested on: wheat (Triticum aestivum); assay: Test A postemergence, wheat; settings: Postemergence
# Summary of the method: as §2
# [14] = tested on: ragweed (common ragweed, Ambrosia artemisiifolia); assay: Test A postemergence, ragweed; settings: Postemergence
# Summary of the method: as §1
# [15] = tested on: Foxtail, Giant (giant foxtail, Setaria faberi); assay: Test A preemergence, Foxtail, Giant; settings: Preemergence; for Plant response rating, Foxtail, Giant: 31 g ai/ha, visual injury, 0 to 100 scale (0 no effect, 100 complete control), approx. 10 days; for Foxtail, Giant plant response rating: 125 g ai/ha, visual injury on 0 to 100 scale (0 no effect, 100 complete control), approximately 10 days
# Summary of the method: as §1
# [16] = tested on: Ryegrass, Italian (Italian ryegrass, Lolium multiflorum); assay: Test A preemergence, Ryegrass, Italian; settings: Preemergence; for Plant response rating, Ryegrass, Italian: 31 g ai/ha, visual injury, 0 to 100 scale (0 no effect, 100 complete control), approx. 10 days; for Ryegrass, Italian plant response rating: 125 g ai/ha, visual injury on 0 to 100 scale (0 no effect, 100 complete control), approximately 10 days
# Summary of the method: as §1
# [17] = 31 g ai/ha, visual injury on 0 to 100 scale (0 no effect, 100 complete control), approx. 10 days
# [18] = 125 g ai/ha, 0 to 100 scale (0 no effect, 100 complete control)
# [19] = 31 g ai/ha, 0 to 100 scale (0 no effect, 100 complete control)
# [20] = 125 g ai/ha, visual injury approx. 10 days, 0 to 100 scale (0 no effect, 100 complete control)
structure (smiles),measurement,setting,value
"Cc1cc(C)c(C2=NOC3(C2)CC(C)CC(C)C3)cc1NS(=O)(=O)C(F)(F)F (single isomer, unassigned) [Compound 168]","Plant response rating, Pigweed",[1]; [17],60
same,"Plant response rating, Pigweed",[1]; [18],80
same,"Plant response rating, Ryegrass, Italian",[2]; [17],0
same,"Plant response rating, Ryegrass, Italian",[2]; [18],30
same,"Plant response rating, Corn",[3]; [17],0
same,"Plant response rating, Corn",[3]; [18],0
same,"Plant response rating, Blackgrass",[4]; [17],0
same,"Plant response rating, Blackgrass",[4]; [18],10
same,"Plant response rating, Barnyardgrass",[5]; [17],30
same,"Plant response rating, Barnyardgrass",[5]; [18],70
same,"Plant response rating, Barnyardgrass",[6],0
same,Barnyardgrass plant response rating,[6],60
same,"Plant response rating, Kochia",[7]; [17],0
same,"Plant response rating, Kochia",[7]; [18],10
same,"Plant response rating, Pigweed",[8],0
same,Pigweed plant response rating,[8],10
same,"Plant response rating, Ragweed",[9],0
same,Ragweed plant response rating,[9],0
same,"Plant response rating, Foxtail, Giant",[10]; [17],0
same,"Plant response rating, Foxtail, Giant",[10]; [18],10
same,"Plant response rating, Galium",[11]; [17],70
same,"Plant response rating, Galium",[11]; [18],90
same,"Plant response rating, Kochia",[12],0
same,Kochia plant response rating,[12],20
same,"Plant response rating, Wheat",[13]; [17],0
same,"Plant response rating, Wheat",[13]; [18],0
same,"Plant response rating, Ragweed",[14]; [17],0
same,"Plant response rating, Ragweed",[14]; [18],60
same,"Plant response rating, Foxtail, Giant",[15],0
same,"Foxtail, Giant plant response rating",[15],0
same,"Plant response rating, Ryegrass, Italian",[16],0
same,"Ryegrass, Italian plant response rating",[16],40
Cc1cc(Cl)c(NS(=O)(=O)C(F)(F)F)cc1C(=O)N1CCOC(C)C1 (stereo not drawn) [Compound 1],"Plant response rating, Pigweed",[1]; [19],50
same,"Plant response rating, Pigweed",[1]; [20],80
same,"Plant response rating, Ryegrass, Italian",[2]; [19],0
same,"Plant response rating, Ryegrass, Italian",[2]; [20],40
same,"Plant response rating, Corn",[3]; [19],20
same,"Plant response rating, Corn",[3]; [20],30
same,"Plant response rating, Blackgrass",[4]; [19],0
same,"Plant response rating, Blackgrass",[4]; [20],50
same,"Plant response rating, Barnyardgrass",[5]; [19],70
same,"Plant response rating, Barnyardgrass",[5]; [20],90
same,"Plant response rating, Barnyardgrass",[6],0
same,Barnyardgrass plant response rating,[6],80
same,"Plant response rating, Kochia",[7]; [19],20
same,"Plant response rating, Kochia",[7]; [20],60
same,"Plant response rating, Pigweed",[8],70
same,Pigweed plant response rating,[8],100
same,"Plant response rating, Ragweed",[9],30
same,Ragweed plant response rating,[9],50
same,"Plant response rating, Foxtail, Giant",[10]; [19],20
same,"Plant response rating, Foxtail, Giant",[10]; [20],70
same,"Plant response rating, Galium",[11]; [19],90
same,"Plant response rating, Galium",[11]; [20],100
same,"Plant response rating, Kochia",[12],40
same,Kochia plant response rating,[12],70
same,"Plant response rating, Wheat",[13]; [19],30
same,"Plant response rating, Wheat",[13]; [20],50
same,"Plant response rating, Ragweed",[14]; [19],80
same,"Plant response rating, Ragweed",[14]; [20],90
same,"Plant response rating, Foxtail, Giant",[15],20
same,"Foxtail, Giant plant response rating",[15],90
same,"Plant response rating, Ryegrass, Italian",[16],40
same,"Ryegrass, Italian plant response rating",[16],90
Cc1cc(C(=O)N2CCOC(C)(C)C2)cc(NS(=O)(=O)C(F)(F)F)c1Cl [Compound 2],"Plant response rating, Pigweed",[1]; [19],60
same,"Plant response rating, Pigweed",[1]; [20],70
same,"Plant response rating, Ryegrass, Italian",[2]; [19],0
same,"Plant response rating, Ryegrass, Italian",[2]; [20],40
same,"Plant response rating, Corn",[3]; [19],20
same,"Plant response rating, Corn",[3]; [20],30
same,"Plant response rating, Blackgrass",[4]; [19],0
same,"Plant response rating, Blackgrass",[4]; [20],0
same,"Plant response rating, Barnyardgrass",[5]; [19],30
same,"Plant response rating, Barnyardgrass",[5]; [20],80
same,"Plant response rating, Barnyardgrass",[6],0
same,Barnyardgrass plant response rating,[6],60
same,"Plant response rating, Kochia",[7]; [19],10
same,"Plant response rating, Kochia",[7]; [20],20
same,"Plant response rating, Pigweed",[8],100
same,Pigweed plant response rating,[8],100
same,"Plant response rating, Ragweed",[9],30
same,Ragweed plant response rating,[9],90
same,"Plant response rating, Foxtail, Giant",[10]; [19],20
same,"Plant response rating, Foxtail, Giant",[10]; [20],50
same,"Plant response rating, Galium",[11]; [19],90
same,"Plant response rating, Galium",[11]; [20],90
same,"Plant response rating, Kochia",[12],20
same,Kochia plant response rating,[12],50
same,"Plant response rating, Wheat",[13]; [19],40
same,"Plant response rating, Wheat",[13]; [20],60
same,"Plant response rating, Ragweed",[14]; [19],30
same,"Plant response rating, Ragweed",[14]; [20],80
same,"Plant response rating, Foxtail, Giant",[15],80
same,"Foxtail, Giant plant response rating",[15],80
same,"Plant response rating, Ryegrass, Italian",[16],30
same,"Ryegrass, Italian plant response rating",[16],50

# From patent US20230278972A1, “SUBSTITUTED HALOALKYL SULFONANILIDE HERBICIDES” (FMC Corporation, priority 2020, published 2023)
